Laboratory results from paper PMC7949122 (The Journal of Biological Chemistry, 2021).
Entries after “also recorded” stand apart in the source; their conditions may differ. Residues, ends and D or L forms follow the SMILES beside them. No end group written: not given here.

What was measured:
[1] = system: endogenous B1R in HeLa cells (ERK1/2 phosphorylation); test: ERK1/2 phosphorylation (western blot) after B1R stimulation, AltB2RFlag versus Mock stable HeLa cells; type: cell-based, human; conditions: 1 μM NG29, n = 3
[2] = system: B1R; set-up: method as in PMID 15734727; conditions: cited from earlier work
[3] = molecular target: T1, mutant human B2R(Ø) lacking AltB2R expression (Homo sapiens, UniProt P30411); test: Competitive displacement of [3H]-BK binding, living B2R(Ø)-transfected HEK293A cells; conditions: n = 3
T1 construct: expressed in transfected cells; host or cells: HEK293A
T1 sequence (P30411 1-391): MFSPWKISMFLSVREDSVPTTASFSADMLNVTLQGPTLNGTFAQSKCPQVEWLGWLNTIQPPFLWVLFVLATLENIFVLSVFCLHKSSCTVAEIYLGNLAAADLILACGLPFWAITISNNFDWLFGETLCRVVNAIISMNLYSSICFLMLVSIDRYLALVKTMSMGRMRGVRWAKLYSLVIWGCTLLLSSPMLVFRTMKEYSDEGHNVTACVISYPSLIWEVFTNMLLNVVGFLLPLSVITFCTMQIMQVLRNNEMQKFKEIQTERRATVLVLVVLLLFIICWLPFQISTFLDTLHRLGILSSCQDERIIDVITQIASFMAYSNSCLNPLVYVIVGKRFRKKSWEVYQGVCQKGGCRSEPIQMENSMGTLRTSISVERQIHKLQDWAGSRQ
Method: Black and gray, negative controls with secondary antibodies only; blue, ^FlagB2R transfected cells; red, ^FlagB2R^(Ø) transfected cells. […] Reported Kd are expressed in nM. Bmax is expressed in fmol/10^6 cells.
Radioligand competition binding assay was performed using adherent living HEK293A cells transiently transfected with B2R or B2R^(Ø), as we previously described ([54]). […] Saturation binding assays were performed using adherent living HEK293A cells transiently transfected with B2R or B2R^(Ø). […] After the incubation time, cells were washed twice with ice-cold PBS, lysed with 200 μl of 0.1 N sodium hydroxide, and transferred into scintillation vials containing 4 ml scintillation liquid. The radioactivity was measured with a β-counter and data were analyzed using GraphPad 6.01 (GraphPad Software, Inc).

[4] = molecular target: T1, mutant human B2R(Ø) lacking AltB2R expression; test: Inositol phosphate (IP1) production, IP-One Gq assay (FRET), B2R(Ø)-transfected HEK293A cells (lacking AltB2R); type: cell-based; conditions: HEK293-A; Emax in B2R(Ø) versus B2R cells; read-out: reduction of efficacy (Emax) for IP1 formation in cells without AltB2R expression
Method: This construct is a monocistronic version of B2R with the mutation C168T. In this mutant, a premature stop codon is introduced in the AltB2R coding sequence (Q11stop) in a manner synonymous for B2R (L56 L). Thus, the B2R encodes B2R and AltB2R, whereas mutant B2R^(Ø) encodes only B2R.
To consolidate the western blot data, AlphaLISA assays were also conducted in parallel in the same cell lines for the quantitative analyses of B2R-stimulated ERK1/2 phosphorylation (Fig. 5, B and C).
Quantitative densitometry analysis of pERK1/2 levels over time (top right). pERK/total ERK ratios were calculated for each time point.
HeLa, HEK293T, and HEK293A cells were maintained in Dulbecco's modified Eagle's medium (DMEM) containing 10% fetal bovine serum (FBS) (Wisent, #080-450) and 1% antibiotic-antimycotic (Wisent, #450-115-EL) under standard conditions. HEK293A cells were transiently transfected with the pcDNA3.1-vector containing the cDNA of human B2R or B2R^(Ø), using polyethylenimine (PEI) or JetPrime (Polyplus). HeLa cells were transiently transfected with B2R and AltB2R constructs using GeneCellin (Bulldog Bio Inc) or JetPrime (Polyplus) transfection reagent, as per the manufacturer’s instructions, and incubated 24 h at 37 °C, unless otherwise stated.
Inositol monophosphate (IP1) production was determined using the IP-One Gq assay kits (Cisbio, #62IPAPEB), according to the manufacturer's instructions. Fluorescence resonance energy transfer (FRET) signals were measured with a Tecan M1000 plate reader.

## SarLys[Dphe^8]desArg^9-BK [NG29]
[1]
  phosphorylated ERK1/2 after B1R stimulation, AltB2RFlag versus mock HeLa cells: not significant; also recorded: did not observe any difference in the increased levels of phosphorylated ERK1/2 between mock and AltB2R^Flag cells

## desArg^10-KD: carboxy-terminally truncated peptide metabolite (KRPPGFSPF; Lysyl-bradykinin; UniProt P01042 380-388, looked up, fragment)
[2]
  kinin receptor selectivity: selectively bind to the other type of kinin receptor, the inducible B1R

## RPPGFSPFR [BK, H-Arg^1-Pro^2-Pro^3-Gly^4-Phe^5-Ser^6-Pro^7-Phe^8-Arg^9-OH]
[3]
  binding affinity, B2R versus B2R(Ø): same affinities

## COc1ccc(C[C@@H](CN[C@@H](CCCNC(=N)N)C(=O)O)NC(=O)[C@@H]2CCCN2C(=O)[C@H](CO)NC(=O)[C@H](Cc2cccs2)NC(=O)CNC(=O)[C@@H]2C[C@@H](O)CN2C(=O)[C@@H]2CCCN2C(=O)[C@@H](N)CCCNC(=N)N)cc1 [RMP-7, [Hyp^3,Thi^5,(4-Me)Tyr^8(ΨCH2NH)Arg^9]-BK] (HELM PEPTIDE1{R.P.[Hyp].G.[O=C([C@H](Cc1cccs1)N[*:1])[*:2]].S.P.[COc1ccc(C[C@@H](CN[C@@H](CCCNC(=N)N)C(=O)O)N[*:1])cc1]}$$$$V2.0)
[4]
  Emax: 16%
